This is an account of results in US11230547B2, “Purine inhibitors of human phosphatidylinositol 3-kinase delta” (Merck Sharp & Dohme Corp., priority 2017, dated 2022).

The structures appear in SMILES notation.

One assay addresses PI3Kdelta (Homo sapiens (Human), UniProt O00329). Kind of assay: HTRF PI3K biochemical assay, delta isoform. The settings on record: 0.3 nM enzyme, 100 uM ATP, 5 uM PIP2, form screened per table. A digest of the protocol: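 PI3Kδ at 0.3 nM preincubated 15 min with compound, then reacted 1 h at room temperature with 100 uM ATP and 5 uM PIP2. PIP3 product detected by competitive HTRF displacing biotin-PIP3 from GST-GRP1 PH domain, so signal falls with activity. 10-point 3-fold dose response.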

The target in a further assay is PI3Kalpha (Homo sapiens (Human), UniProt P42336). Kind of assay: HTRF PI3K biochemical assay, alpha isoform (selectivity versus delta). The settings on record: relative ratio PI3K-alpha IC50 value / PI3K-delta IC50 value. A digest of the protocol:
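Recombinant human PI3Kα (0.5 nM) preincubated 15 min with compound, then reacted 1 h at room temperature with 100 uM ATP and 5 uM PIP2. PIP3 formation detected by HTRF competition with biotin-PIP3 for GST-GRP1 PH domain (Eu/APC, 665/620 nm); product lowers signal.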

Sequence of PI3Kalpha (P42336 whole entry, the tested form may be a part, canonical isoform): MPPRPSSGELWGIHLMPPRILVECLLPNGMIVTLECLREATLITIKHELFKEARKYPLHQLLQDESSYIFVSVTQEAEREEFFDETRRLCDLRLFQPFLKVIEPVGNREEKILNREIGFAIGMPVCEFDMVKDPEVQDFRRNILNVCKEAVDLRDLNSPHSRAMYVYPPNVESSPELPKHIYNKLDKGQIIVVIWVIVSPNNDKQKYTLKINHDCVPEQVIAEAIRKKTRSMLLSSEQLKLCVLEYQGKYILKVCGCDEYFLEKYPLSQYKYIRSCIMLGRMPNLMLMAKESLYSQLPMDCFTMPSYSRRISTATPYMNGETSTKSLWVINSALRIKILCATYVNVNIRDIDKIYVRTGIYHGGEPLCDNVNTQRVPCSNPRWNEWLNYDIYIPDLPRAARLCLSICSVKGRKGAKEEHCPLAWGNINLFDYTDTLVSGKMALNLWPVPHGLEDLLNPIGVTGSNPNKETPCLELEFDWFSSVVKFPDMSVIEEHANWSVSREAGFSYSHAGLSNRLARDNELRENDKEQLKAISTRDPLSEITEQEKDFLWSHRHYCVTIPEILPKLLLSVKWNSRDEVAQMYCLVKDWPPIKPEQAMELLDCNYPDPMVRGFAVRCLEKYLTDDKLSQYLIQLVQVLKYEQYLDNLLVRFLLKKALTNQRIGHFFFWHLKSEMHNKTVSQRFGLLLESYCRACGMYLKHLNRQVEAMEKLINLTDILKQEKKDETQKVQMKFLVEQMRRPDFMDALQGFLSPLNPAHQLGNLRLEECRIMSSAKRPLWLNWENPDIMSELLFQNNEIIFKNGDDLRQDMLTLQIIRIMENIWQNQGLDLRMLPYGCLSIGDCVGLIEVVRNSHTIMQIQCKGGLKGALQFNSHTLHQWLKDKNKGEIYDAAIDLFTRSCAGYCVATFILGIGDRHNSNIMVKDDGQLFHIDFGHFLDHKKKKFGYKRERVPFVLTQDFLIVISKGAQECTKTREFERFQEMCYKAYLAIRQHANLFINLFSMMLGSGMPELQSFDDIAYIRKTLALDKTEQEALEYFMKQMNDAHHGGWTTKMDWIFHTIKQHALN
Sequence of PI3Kalpha (P27986 whole entry partner, the tested form may be a part, canonical isoform): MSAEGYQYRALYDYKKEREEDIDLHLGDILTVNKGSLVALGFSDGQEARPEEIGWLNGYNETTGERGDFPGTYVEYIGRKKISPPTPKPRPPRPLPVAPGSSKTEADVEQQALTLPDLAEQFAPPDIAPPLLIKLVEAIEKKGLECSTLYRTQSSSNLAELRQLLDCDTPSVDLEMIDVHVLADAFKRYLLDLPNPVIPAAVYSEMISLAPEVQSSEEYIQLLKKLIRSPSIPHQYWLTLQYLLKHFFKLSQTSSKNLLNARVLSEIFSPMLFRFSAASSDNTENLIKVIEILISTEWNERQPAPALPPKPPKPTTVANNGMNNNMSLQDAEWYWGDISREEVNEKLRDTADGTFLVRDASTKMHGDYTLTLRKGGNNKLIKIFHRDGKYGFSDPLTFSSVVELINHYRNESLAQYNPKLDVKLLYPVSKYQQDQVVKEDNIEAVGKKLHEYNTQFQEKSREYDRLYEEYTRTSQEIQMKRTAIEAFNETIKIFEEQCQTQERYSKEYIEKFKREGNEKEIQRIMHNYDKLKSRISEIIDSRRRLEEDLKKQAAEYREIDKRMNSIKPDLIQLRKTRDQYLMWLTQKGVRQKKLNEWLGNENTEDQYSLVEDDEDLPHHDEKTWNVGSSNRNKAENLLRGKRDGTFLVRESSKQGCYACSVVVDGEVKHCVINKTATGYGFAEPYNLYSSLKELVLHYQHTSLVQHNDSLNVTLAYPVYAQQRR
Sequence of PI3Kdelta (O00329 whole entry, the tested form may be a part, canonical isoform): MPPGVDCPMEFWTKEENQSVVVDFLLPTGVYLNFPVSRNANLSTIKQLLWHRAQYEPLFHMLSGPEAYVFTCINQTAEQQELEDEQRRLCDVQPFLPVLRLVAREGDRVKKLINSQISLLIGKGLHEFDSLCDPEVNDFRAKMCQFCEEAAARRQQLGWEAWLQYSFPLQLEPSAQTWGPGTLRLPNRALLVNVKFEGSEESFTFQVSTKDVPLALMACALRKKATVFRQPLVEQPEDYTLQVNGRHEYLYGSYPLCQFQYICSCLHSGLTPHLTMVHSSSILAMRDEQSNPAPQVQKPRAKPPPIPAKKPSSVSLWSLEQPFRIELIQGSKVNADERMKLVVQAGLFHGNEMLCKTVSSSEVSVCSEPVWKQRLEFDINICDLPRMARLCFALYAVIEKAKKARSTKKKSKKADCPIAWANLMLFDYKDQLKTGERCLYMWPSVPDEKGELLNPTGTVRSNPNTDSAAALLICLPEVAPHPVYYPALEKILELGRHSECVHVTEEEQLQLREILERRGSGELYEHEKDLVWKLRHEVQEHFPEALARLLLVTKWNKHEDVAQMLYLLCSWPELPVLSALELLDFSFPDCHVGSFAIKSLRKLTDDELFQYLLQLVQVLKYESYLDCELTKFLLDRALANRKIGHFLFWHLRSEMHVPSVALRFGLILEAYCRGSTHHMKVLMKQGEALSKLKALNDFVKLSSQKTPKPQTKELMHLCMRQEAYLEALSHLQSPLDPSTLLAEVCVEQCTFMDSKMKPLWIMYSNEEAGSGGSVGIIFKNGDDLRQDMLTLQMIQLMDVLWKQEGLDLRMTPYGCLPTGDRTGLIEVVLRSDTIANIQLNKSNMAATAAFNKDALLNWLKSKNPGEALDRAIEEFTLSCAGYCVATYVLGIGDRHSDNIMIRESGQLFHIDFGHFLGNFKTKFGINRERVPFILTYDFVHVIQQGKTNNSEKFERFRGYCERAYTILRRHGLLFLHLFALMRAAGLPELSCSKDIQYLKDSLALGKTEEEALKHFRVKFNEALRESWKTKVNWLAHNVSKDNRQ
Sequence of PI3Kdelta (P27986 whole entry partner, the tested form may be a part, canonical isoform): as the sequence (P27986 whole entry partner, the tested form may be a part, canonical isoform) above

In the case of `C[C@@H]1CN(c2nc(-c3cnn(C)c3)nc(NC3CCC3)c2C#N)CCN1C(=O)C1CC1` [Compound 6-7, 4-(cyclobutylamino)-6-[(3R)-4-(cyclopropylcarbonyl)-3-methylpiperazin-1-yl]-2-(1-methyl-1H-pyrazol-4-yl)pyrimidine-5-carbonitrile], on PI3Kdelta, the IC50 came out at 80 nM. In addition, on PI3Kalpha, the “Selectivity versus PI3Kalpha” value is >10.
In the case of `C[C@@H]1CN(c2nc(-c3cnn(C)c3)nc(Nc3ccccc3)c2C#N)CCN1C(=O)C1CC1` [Compound 6-8, 4-[(3R)-4-(cyclopropylcarbonyl)-3-methylpiperazin-1-yl]-2-(1-methyl-1H-pyrazol-4-yl)-6-(phenylamino)pyrimidine-5-carbonitrile], the IC50 at PI3Kdelta turned out to be 19 nM. The “Selectivity versus PI3Kalpha” value at PI3Kalpha was >10.
In the same order, the values of `C[C@@H]1CN(c2nc(Cl)c(C#N)c(-c3cnn(C)c3)n2)CCN1C(=O)C1CC1` [Compound 6-9, 4-chloro-2-[(3R)-4-(cyclopropylcarbonyl)-3-methylpiperazin-1-yl]-6-(1-methyl-1H-pyrazol-4-yl)pyrimidine-5-carbonitrile] are 30 nM and >10.
With `Cc1nc(-c2cnn(C)c2)nc(N2CCN(C(=O)C3CC3)[C@H](C)C2)c1C#N` [Compound 6-10, 4-[(3R)-4-(cyclopropylcarbonyl)-3-methylpiperazin-1-yl]-6-methyl-2-(1-methyl-1H-pyrazol-4-yl)pyrimidine-5-carbonitrile], half-maximal inhibition against PI3Kdelta (IC50) required 180 nM. The “Selectivity versus PI3Kalpha” value on PI3Kalpha is >10.
As for `C[C@@H]1CN(c2nc(-c3cnn(C)c3CCC(F)(F)F)ncc2C#N)CCN1C(=O)C1CC1` [Compound 6-11, 4-[(3R)-4-(cyclopropylcarbonyl)-3-methylpiperazin-1-yl]-2-[1-methyl-5-(3,3,3-trifluoropropyl)-1H-pyrazol-4-yl]pyrimidine-5-carbonitrile], the half-inhibitory concentration (IC50) on PI3Kdelta came out at 160 nM. In addition, the “Selectivity versus PI3Kalpha” value at PI3Kalpha was >10.
At PI3Kdelta, `COCCc1nc(N2CCN(C(=O)C3CC3)[C@H](C)C2)nc(-c2cnn(C)c2)c1C#N` [Compound 6-12, 2-[(3R)-4-(cyclopropylcarbonyl)-3-methylpiperazin-1-yl]-4-(2-methoxyethyl)-6-(1-methyl-1H-pyrazol-4-yl)pyrimidine-5-carbonitrile] registered an IC50 of 58 nM. In addition, at PI3Kalpha, the “Selectivity versus PI3Kalpha” value is >10.
The compound `C[C@@H]1CN(c2ncc(C#N)c(-c3cn(C)nc3C#N)n2)CCN1C(=O)C1CC1` [Compound 6-13, 4-(3-cyano-1-methyl-1H-pyrazol-4-yl)-2-[(3R)-4-(cyclopropylcarbonyl)-3-methylpiperazin-1-yl]pyrimidine-5-carbonitrile] came in with an IC50 against PI3Kdelta of 180 nM. In addition, the “Selectivity versus PI3Kalpha” value on PI3Kalpha is listed as >10.
On PI3Kdelta, `C[C@@H]1CN(c2ncc(C#N)c(-c3cn(C)nc3N)n2)CCN1C(=O)C1CC1` [Compound 6-14, 4-(3-amino-1-methyl-1H-pyrazol-4-yl)-2-[(3R)-4-(cyclopropylcarbonyl)-3-methylpiperazin-1-yl]pyrimidine-5-carbonitrile] had an IC50 of 21 nM. Also, the “Selectivity versus PI3Kalpha” value on PI3Kalpha was >10.
For `C[C@@H]1CN(c2nc(-c3cnn4c3CCC4)ncc2C#N)CCN1C(=O)C1CC1` [Compound 6-15, 4-[(3R)-4-(cyclopropylcarbonyl)-3-methylpiperazin-1-yl]-2-(5,6-dihydro-4H-pyrrolo[1,2-b]pyrazol-3-yl)pyrimidine-5-carbonitrile] the same measures were 83 nM and >10.
For `C[C@@H]1CN(c2nc(-c3cnn(C)c3)nc(NC(=O)NCC(F)(F)F)c2C#N)CCN1C(=O)C1CC1` [Compound 6-16, 1-{5-cyano-6-[(3R)-4-(cyclopropylcarbonyl)-3-methylpiperazin-1-yl]-2-(1-methyl-1H-pyrazol-4-yl)pyrimidin-4-yl}-3-(2,2,2-trifluoroethyl)urea] the same measures were 16 nM and >10.
At PI3Kdelta, `C[C@@H]1CN(c2nc(-c3cnn(C)c3)nc(NC(=O)NC3CCC3)c2C#N)CCN1C(=O)C1CC1` [Compound 6-17, 1-{5-cyano-6-[(3R)-4-(cyclopropylcarbonyl)-3-methylpiperazin-1-yl]-2-(1-methyl-1H-pyrazol-4-yl)pyrimidin-4-yl}-3-cyclobutylurea] had an IC50 of 5 nM. Besides, the “Selectivity versus PI3Kalpha” value on PI3Kalpha is reported as >10.
In the case of `C[C@@H]1CN(c2nc(-c3cnn(C)c3)nc(NCC3COC3)c2C#N)CCN1C(=O)C1CC1` [Compound 6-18, 4-[(3R)-4-(cyclopropylcarbonyl)-3-methylpiperazin-1-yl]-2-(1-methyl-1H-pyrazol-4-yl)-6-[(oxetan-3-ylmethyl)amino]pyrimidine-5-carbonitrile], the IC50 against PI3Kdelta was 49 nM. The “Selectivity versus PI3Kalpha” value on PI3Kalpha is given as >10.
Compound `C[C@@H]1CN(c2nc(-c3cnn(C)c3)nc(NCCC(F)(F)F)c2C#N)CCN1C(=O)C1CC1` [Compound 6-19, 4-[(3R)-4-(cyclopropylcarbonyl)-3-methylpiperazin-1-yl]-2-(1-methyl-1H-pyrazol-4-yl)-6-[(3,3,3-trifluoropropyl)amino]pyrimidine-5-carbonitrile] had an IC50 against PI3Kdelta of 9.4 nM. In addition, on PI3Kalpha, the “Selectivity versus PI3Kalpha” value is reported as >10.
The compound `CC(C)Nc1nc(-c2cnn(C)c2)nc(N2CCN(C(=O)C3CC3)[C@H](C)C2)c1C#N` [Compound 6-20, 4-[(3R)-4-(cyclopropylcarbonyl)-3-methylpiperazin-1-yl]-6-[(1-methylethyl)amino]-2-(1-methyl-1H-pyrazol-4-yl)pyrimidine-5-carbonitrile] yielded an IC50 against PI3Kdelta of 150 nM. In addition, the “Selectivity versus PI3Kalpha” value on PI3Kalpha was >10.
Compound `CC(C)CNc1nc(-c2cnn(C)c2)nc(N2CCN(C(=O)C3CC3)[C@H](C)C2)c1C#N` [Compound 6-21, 4-[(3R)-4-(cyclopropylcarbonyl)-3-methylpiperazin-1-yl]-6-[(2-methylpropyl)amino]-2-(1-methyl-1H-pyrazol-4-yl)pyrimidine-5-carbonitrile] registered an IC50 at PI3Kdelta of 21 nM. Also, on PI3Kalpha, the “Selectivity versus PI3Kalpha” value is on record as >10.
In the same order, the values of `C[C@@H]1CN(c2nc(-c3cnn(C)c3)nc(OCC(F)(F)F)c2C#N)CCN1C(=O)C1CC1` [Compound 6-22, 4-[(3R)-4-(cyclopropylcarbonyl)-3-methylpiperazin-1-yl]-2-(1-methyl-1H-pyrazol-4-yl)-6-(2,2,2-trifluoroethoxy)pyrimidine-5-carbonitrile] are 9.7 nM and >10.
At PI3Kdelta, `C[C@@H]1CN(c2nc(-c3cnn(C)c3)nc(N3CC(C(F)(F)F)C3)c2C#N)CCN1C(=O)C1CC1` [Compound 6-23, 4-[(3R)-4-(cyclopropylcarbonyl)-3-methylpiperazin-1-yl]-2-(1-methyl-1H-pyrazol-4-yl)-6-[3-(trifluoromethyl)azetidin-1-yl]pyrimidine-5-carbonitrile] gave an IC50 of 83 nM. Further, the “Selectivity versus PI3Kalpha” value at PI3Kalpha is recorded as >10.
On PI3Kdelta, `CCCc1nc(-c2cnn(C)c2)nc(N2CCN(C(=O)C3CC3)[C@H](C)C2)c1C#N` [Compound 6-24, 4-[(3R)-4-(cyclopropylcarbonyl)-3-methylpiperazin-1-yl]-2-(1-methyl-1H-pyrazol-4-yl)-6-propylpyrimidine-5-carbonitrile] showed a half-maximal inhibitory concentration (IC50) of 200 nM. At PI3Kalpha, the “Selectivity versus PI3Kalpha” value is listed as >10.
`CCCc1nc(N2CCN(C(=O)C3CC3)[C@H](C)C2)nc(-c2cnn(C)c2)c1C#N` [Compound 6-25, 2-[(3R)-4-(cyclopropylcarbonyl)-3-methylpiperazin-1-yl]-4-(1-methyl-1H-pyrazol-4-yl)-6-propylpyrimidine-5-carbonitrile] showed an IC50 on PI3Kdelta of 10 nM. Moreover, at PI3Kalpha, the “Selectivity versus PI3Kalpha” value is given as >10.
In the same order, the values of `C[C@@H]1CN(c2nc(CCC(F)(F)F)c(C#N)c(-c3cnn(C)c3)n2)CCN1C(=O)C1CC1` [Compound 6-26, 2-[(3R)-4-(cyclopropylcarbonyl)-3-methylpiperazin-1-yl]-4-(1-methyl-1H-pyrazol-4-yl)-6-(3,3,3-trifluoropropyl)pyrimidine-5-carbonitrile] are 12 nM and >10.
Compound `C[C@@H]1CN(c2nc(-c3cnn(C)c3)c(C#N)c(C3CC3)n2)CCN1C(=O)C1CC1` [Compound 6-27, 4-cyclopropyl-2-[(3R)-4-(cyclopropylcarbonyl)-3-methylpiperazin-1-yl]-6-(1-methyl-1H-pyrazol-4-yl)pyrimidine-5-carbonitrile] gave an IC50 against PI3Kdelta of 32 nM. The “Selectivity versus PI3Kalpha” value at PI3Kalpha was >10.
In the same order, the values of `Cc1nn(C)cc1-c1ncc(C#N)c(N2CCN(C(=O)C3CC3)[C@H](C)C2)n1` [Compound 6-28, 4-[(3R)-4-(cyclopropylcarbonyl)-3-methylpiperazin-1-yl]-2-(1,3-dimethyl-1H-pyrazol-4-yl)pyrimidine-5-carbonitrile] are 140 nM and >10.
As for `Cc1c(-c2ncc(C#N)c(N3CCN(C(=O)C4CC4)[C@H](C)C3)n2)cnn1C` [Compound 6-29, 4-[(3R)-4-(cyclopropylcarbonyl)-3-methylpiperazin-1-yl]-2-(1,5-dimethyl-1H-pyrazol-4-yl)pyrimidine-5-carbonitrile], the IC50 against PI3Kdelta came out at 81 nM. Moreover, the “Selectivity versus PI3Kalpha” value at PI3Kalpha is >10.
Take `C[C@@H]1CN(c2nc(-c3cnn(C(F)F)c3)ncc2C#N)CCN1C(=O)C1CC1` [Compound 6-30, 4-[(3R)-4-(cyclopropylcarbonyl)-3-methylpiperazin-1-yl]-2-[1-(difluoromethyl)-1H-pyrazol-4-yl]pyrimidine-5-carbonitrile]: the midpoint of inhibition against PI3Kdelta, the IC50, lay at 330 nM. Besides, the “Selectivity versus PI3Kalpha” value at PI3Kalpha is listed as >10.
